≈ marks a conversion by molar mass, not a printed value. Where “and” joins values, the source holds several entries; their conditions need not be identical. Identical values can stand only once. Like-named read-outs stand apart in the source and are kept apart here. Some results are limits rather than exact numbers.

For data set [1], the system named is Trypanosoma cruzi (Tulahuen C4). The experiment in a line: In vitro anti-T. cruzi activity (β-galactosidase CPRG colorimetric assay in VERO monolayer). The format is cell-based. The following applies: for IC50 / inhibition at 10 µg/mL: Trypanosoma cruzi, TULAHUEN, Vero; for inhibition at 10 µg/mL: 120 h, read-out: T. cruzi Inhib. (%); for inhibition at 10 µg/mL / T. cruzi Inhib. (%): 10 μg/mL of each compound, 120 hours.

The test system of the next data set is 3T3 cells. Put plainly: Cell growth inhibition bioassay (sulforhodamine B). The note with it: 48 h, SRB; for GI50: Mus musculus, NIH3T3, read-out: GI50 in indicated cell line: 3T3. The format is cell-based, mouse. The method, boiled down: (§1)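 Cells were exposed to compound alongside matched solvent controls, then stained with sulforhodamine B. Percent growth inhibition was calculated from dye absorbance against the control.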

A further data set has as its system MCF-7 cells. Put plainly: Cell growth inhibition bioassay (sulforhodamine B). The format is cell-based, human. The note with it: 48 h, SRB; for GI50: Homo sapiens, MCF7, read-out: GI50 in indicated cell line: MCF-7. A digest of the protocol:
(§2)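 SRB colorimetric read-out; % growth inhibition vs solvent control. Human lines: MCF-7 (breast adenocarcinoma), DU145 (prostate carcinoma), PC3 (prostate adenocarcinoma), H460 (large cell lung cancer).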

Another data set concerns K562 cells. The experiment in a line: Cell growth inhibition bioassay (sulforhodamine B). Type of data set: cell-based, human. The note with it: 48 h, SRB; for GI50: Homo sapiens, K562, read-out: GI50 in indicated cell line: K562. A digest of the protocol:
as §1

In the next data set the test system is M-14 cells. Put plainly: Cell growth inhibition bioassay (sulforhodamine B). Type of data set: cell-based, human. The note with it: 48 h, SRB; for GI50: Homo sapiens, M14, read-out: GI50 in indicated cell line: M-14. The method, boiled down: as §1
For another data set, the system named is HT-29 cells. Put plainly: Cell growth inhibition bioassay (sulforhodamine B). The format is cell-based, human. The note with it: 48 h, SRB; for GI50: Homo sapiens, HT-29, read-out: GI50 in indicated cell line: HT-29. A digest of the protocol:
as §1

The next data set has as its system DU145 cells. Put plainly: Cell growth inhibition bioassay (sulforhodamine B). The format is cell-based, human. The note with it: 48 h, SRB; for GI50: Homo sapiens, DU-145, read-out: GI50 in indicated cell line: DU145. The method, boiled down: as §2
Another data set deals with H460 cells. Put plainly: Cell growth inhibition bioassay (sulforhodamine B). Type of data set: cell-based, human. The following applies: 48 h, SRB; for GI50: Homo sapiens, NCI-H460, read-out: GI50 in indicated cell line: H460. The method, boiled down: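 Growth inhibition was measured colorimetrically with sulforhodamine B staining and expressed as percent inhibition relative to solvent-treated controls. Cell lines were human: MCF-7 breast adenocarcinoma, DU145 and PC3 prostate carcinoma/adenocarcinoma, H460 large cell lung cancer.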

A further data set deals with PC3 cells. Put plainly: Cell growth inhibition bioassay (sulforhodamine B). The format is cell-based. The note with it: Homo sapiens, PC-3; 48 h, SRB; read-out: GI50 in indicated cell line: PC3. The procedure:
The cytotoxicity of compounds was assayed as follows. […] Appropriate solvent controls were tested for comparison. The percent inhibition of cell growth relative to the control was evaluated colorimetrically using a sulforhodamine B dye by comparison to the control. The calorimetric procedure followed that published in Skehan et al., J. Nat. Cancer Inst., […], pp. 1107-1112 (1990) and Boyd & Paull, Drug Dev. Res., Vol. 34, pp. 91-109 (1995). […] The cell lines are: 3T3 cells are BALB/3T3 clone A31 embryonic mouse fibroblast cells; H460 cells are human large cell lung cancer cells; DU145 cells are human prostate carcinoma cells; MCF-7 cells are human breast adenocarcinoma cells; M-14 cells are human melanoma cells; HT-29 cells are human colon adenocarcinoma cells; PC3 cells are human prostate adenocarcinoma cells; K562 cells are human chronic myelogenous leukemia cells; and VERO cells are African Green Monkey kidney epithelial cells.

Data set [2] is described as follows: Toxicity to peritoneal macrophages (Trypan Blue count). Type of data set: cell-based, BALB/C mouse. The note with it: BALB/C, mouse.
Data set [3] deals with M. tuberculosis H37Rv. The experiment in a line: Conventional aerobic (MABA) culture assay, luminescence MIC. The format is cell-based, Mycobacterium tuberculosis. The note with it: aerobic, 7 days, H37Rv.
Data set [4] concerns axenic amastigotes of L. amazonensis (strain MHOM/BR/76/LTB-012). The following applies: Table 8b.
The test system of data set [5] is VERO cells. The experiment in a line: VERO cells IC50 (Table 5). Type of data set: cell-based, African green monkey. The following applies: Chlorocebus sabaeus.
Data set [6] deals with M. tuberculosis H37Rv. The experiment in a line: Anti-tuberculosis bioassay (tetrazolium microplate MIC). The format is cell-based. The following applies: Mycobacterium tuberculosis, read-out: Mycobacterium MIC H37Rv, Table 5.
Data set [7] concerns axenic amastigotes of L. amazonensis (strain MHOM/BR/76/LTB-012). The experiment in a line: microbe, parasite or virus in culture. The note with it: Leishmania amazonensis.
The nature of data set [8]: Cytotoxicity on VERO cells (MTT), anti-T. cruzi study. The following applies: African green monkey, VERO cells.
Data set [9] has as its system VERO cells. The experiment in a line: Cell growth inhibition bioassay (sulforhodamine B). The following applies: 48 h, SRB. The format is cell-based, African Green Monkey. A digest of the protocol: as §1
The subject of a further data set is M. tuberculosis MDR. The experiment in a line: Anti-tuberculosis bioassay (tetrazolium microplate MIC). Type of data set: cell-based. The note with it: Mycobacterium tuberculosis, read-out: Mycobacterium MIC MDR.
The next data set has as its system peritoneal macrophages. The experiment in a line: Toxicity to peritoneal macrophages (Trypan Blue count). Type of data set: cell-based, BALB/C mouse.
For data set [10], the system named is VERO cells. Put plainly: Cytotoxicity on VERO cells (MTT), anti-T. cruzi study. The note with it: Lab B.
Data set [11] deals with non-replicating persistence Mycobacterium tuberculosis (NRP-TB). The experiment in a line: Low oxygen recovery assay (LORA). The format is cell-based. The following applies: anaerobic 10 days, 28 hour recovery; value in brackets.
Another data set has as its system VERO cell. The experiment in a line: Cytotoxicity VERO cell (Table 6). The note with it: Table 6.
Setting [12] is: Table 3, read-out: IC50 T. cruzi.

Take `COc1ccc(CCC(=O)c2c(O)cc(OC)cc2OC)cc1` [Compound I-03, 1-(2-Hydroxy-4,6-dimethoxyphenyl)-3-(4-methoxyphenyl)-1-propanone]: the melting point was found to be 107 °C. Also, the IC50 in [1] (setting [12]) was greater than 100 µM. Besides, the GI50 with 3T3 cells is greater than 197 µM. In the data set on MCF-7 cells, the GI50 was greater than 197 µM. Moreover, the GI50 in the data set on K562 cells was greater than 197 µM. The GI50 in the data set with M-14 cells is greater than 197 µM. In addition, in the data set with HT-29 cells, the GI50 was greater than 197 µM. Besides, the 50% growth inhibitory concentration (GI50) with DU145 cells was greater than 197 µM. Further, the GI50 in the data set with H460 cells is greater than 197 µM. Moreover, in the data set with PC3 cells, the GI50 is greater than 197 µM.

On to `Fc1ccccc1/C=N\Nc1ncnc2sc3c(c12)CCCC3` [II-27], for which the “Selectivity Index Lab B” value in data set [1] (IC50, VERO/IC50, T. cruzi, Lab B) came to 1.7. Also, the inhibition at 10 µg/mL in [1] turned out to be 78.9%. Also, the IC50 in data set [1] (Lab B, read-out: T. cruzi IC50 Lab B) was 3.5 mg/L; in data set [1] (Table 2, read-out: IC50 - T. cruzi), 4.37 mg/L; with VERO cells [5], 27.7 mg/L (≈ 84.9 µM); in data set [7] (read-out: IC50 Cytotoxicity Against Amastigotes) it was 3.2 µM; in [7] (read-out: L. amazonensis IC50), 1.1 µM; in data set [8] (Cytotoxicity VERO Lab B, Lab B), 6 mg/L (≈ 18.4 µM). The IC50 in data set [8] (IC50 - VERO Cytotoxicity, Table 2) was 7 mg/L (≈ 21.4 µM). Further, the GI50 was greater than 93.8 mg/L in the data set with 3T3 cells; 24.5 mg/L in the data set with MCF-7 cells; 26.5 mg/L with K562 cells; greater than 93.8 mg/L with M-14 cells; greater than 93.8 mg/L in the data set on HT-29 cells; greater than 93.8 mg/L in the data set with DU145 cells. Further, the GI50 was greater than 93.8 mg/L in the data set with H460 cells and greater than 93.8 mg/L with VERO cells [9] (Chlorocebus sabaeus, Vero, read-out: GI50 in indicated cell line: VERO). In addition, the IC50 at 48 h in data set [2] (Cytotoxicity Macrophages IC50) was 3.3 µM; in [2] (IC50 Cytotoxicity Against Macrophages), greater than 10 µM. The MIC is greater than 100 mg/L against M. tuberculosis H37Rv [3] (Mycobacterium tuberculosis, 168 h); 3.12 mg/L (≈ 9.56 µM) in the data set with M. tuberculosis H37Rv [6]; 3.12 mg/L (≈ 9.56 µM) with M. tuberculosis MDR. For the same compound, the “Selectivity Index” value in data set [4] came to 3.1.

`COc1cc(O)c(C(=O)CCc2ccc3c(c2)OCO3)c(OC)c1` [Compound I-04, 3-(1,3-Benzodioxol-5-yl)-1-(2-hydroxy-4,6-dimethoxyphenyl)-1-propanone] displayed a melting point of 125 °C. In addition, in data set [1], the “T. cruzi Inhib. (%)” value was 12.96% and 3.24%. Besides, in data set [1] (setting [12]), the IC50 was greater than 100 µM. The GI50 in the data set with 3T3 cells came out at 21.5 µM. Besides, the GI50 with MCF-7 cells turned out to be 42.4 µM. Besides, in the data set on K562 cells, the GI50 stood at 28.2 µM. The GI50 in the data set on M-14 cells is 82 µM. Moreover, the GI50 in the data set on HT-29 cells came to 145 µM. In addition, the GI50 in the data set on DU145 cells is 60.2 µM. Also, the GI50 with H460 cells came out at 105 µM. The GI50 in the data set with PC3 cells was 39.1 µM.

On to `FC(F)(F)c1ccccc1C=NNc1ncnc2sc3c(c12)CCCC3` [II-25], for which, in data set [1] (Lab A), the “T. cruzi IC50 Lab A” value is 0.5 mg/L. Moreover, the “T. cruzi IC50 Lab B” value in data set [1] (Lab B) is 5.2 mg/L. Further, the “GI50 in indicated cell line: 3T3” value in the data set on 3T3 cells is 6.0 mg/L (≈ 15.9 µM). Also, the IC50 with peritoneal macrophages stood at 1.2 µM; in data set [4] (read-out: L. amazonensis IC50) it was 0.4 µM. Moreover, in the data set on M. tuberculosis H37Rv [3], the “MIC MABA” value was 5.9 mg/L (≈ 15.7 µM). For the same compound, the “GI50 in indicated cell line: MCF-7” value in the data set on MCF-7 cells turned out to be 1.8 mg/L (≈ 4.78 µM). In the data set on K562 cells, the “GI50 in indicated cell line: K562” value worked out at 0.6 mg/L (≈ 1.59 µM). The “GI50 in indicated cell line: M-14” value in the data set with M-14 cells stood at 2.5 mg/L (≈ 6.64 µM). Moreover, the “GI50 in indicated cell line: HT-29” value in the data set with HT-29 cells worked out at 1.7 mg/L (≈ 4.52 µM). The “GI50 in indicated cell line: DU145” value in the data set on DU145 cells is 1.3 mg/L (≈ 3.45 µM). For the same compound, the “GI50 in indicated cell line: H460” value in the data set with H460 cells was 2.0 mg/L (≈ 5.31 µM). Moreover, the “Cytotoxicity VERO Lab B” value with VERO cells [10] is reported as 3.0. Moreover, the “MIC LORA” value in data set [11] turned out to be 5.8 mg/L (≈ 15.4 µM). In the data set with VERO cells [9], the “GI50 in indicated cell line: VERO” value was 1.7 mg/L (≈ 4.52 µM). Moreover, the “Cytotoxicity VERO cell” value with VERO cell turned out to be 7.6 µg/mL.

For `COc1ccc(CCC(=O)c2c(O)cc(O)cc2OC)cc1` [Compound I-07, 1-(2,4-Dihydroxy-6-methoxyphenyl)-3-(4-methoxyphenyl)-1-propanone], the melting point is 166 °C. Besides, in data set [1], the “T. cruzi Inhib. (%)” value came out at 27.74% and the inhibition at 10 µg/mL is 20.5%. Moreover, the IC50 in data set [1] (setting [12]) is greater than 25 µM. Also, in the data set with 3T3 cells, the concentration for 50% growth inhibition (GI50) is greater than 206 µM. Moreover, the GI50 in the data set on MCF-7 cells is 65.5 µM. For the same compound, the GI50 with K562 cells came to 22.8 µM. Besides, the GI50 in the data set with M-14 cells was found to be 109 µM. Further, in the data set with HT-29 cells, the GI50 was greater than 206 µM. Besides, the GI50 in the data set on DU145 cells was greater than 206 µM. Further, the GI50 in the data set on H460 cells came to 128 µM. In addition, the 50% growth inhibitory concentration (GI50) with PC3 cells came to 59.9 µM.

One may read the IC50 as the concentration that inhibits the measured activity by half. A word on the GI50: it is the concentration at which growth is held to half of that of the control. The melting point is the temperature, or range, at which the solid turns liquid. As a reminder, the MIC is the lowest concentration that inhibits growth of the organism.
